In ChEMBL document CHEMBL1201862, “PubChem BioAssay data set” (2004):
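Test compounds were applied to cells in 96-well plates for 48 hours at 5 doses. GI50 is the concentration that inhibits growth by half.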 Activity calls are given as the source filed them. Rule as the data show it: active = GI50 up to about 1.1 µM and inactive = higher.

What was measured:
Assay in all cases: NCI-60 cell line screen, 48 h
DU-145 = system: DU-145
LOX IMVI = system: LOX IMVI
SK-MEL-28 = system: SK-MEL-28
RXF 393 = system: RXF 393
SR = system: SR
SK-MEL-5 = system: SK-MEL-5
786-0 = system: 786-0
U-251 = system: U-251
ACHN = system: ACHN
SNB-19 = system: SNB-19
UO-31 = system: UO-31
OVCAR-4 = system: OVCAR-4
T47D = system: T47D
SF-268 = system: SF-268
Malme-3M = system: Malme-3M
MDA-MB-435 = system: MDA-MB-435
HCC 2998 = system: HCC 2998
OVCAR-8 = system: OVCAR-8
HT-29 = system: HT-29
SN12C = system: SN12C
MDA-N = system: MDA-N
RPMI-8226 = system: RPMI-8226
TK-10 = system: TK-10
SK-MEL-2 = system: SK-MEL-2
SNB-75 = system: SNB-75
IGROV-1 = system: IGROV-1
KM12 = system: KM12
HCT-15 = system: HCT-15
A498 = system: A498
MOLT-4 = system: MOLT-4
UACC-257 = system: UACC-257
MDA-MB-231 = system: MDA-MB-231
HCT-116 = system: HCT-116
NCI/ADR-RES = system: NCI/ADR-RES
Hs-578T = system: Hs-578T
NCI-H522 = system: NCI-H522
NCI-H226 = system: NCI-H226
COLO 205 = system: COLO 205
UACC-62 = system: UACC-62
EKVX = system: EKVX
OVCAR-5 = system: OVCAR-5
PC-3 = system: PC-3
MCF7 = system: MCF7
K562 = system: K562
HOP-62 = system: HOP-62
SF-295 = system: SF-295
NCI-H23 = system: NCI-H23
OVCAR-3 = system: OVCAR-3
BT-549 = system: BT-549
SW-620 = system: SW-620
CAKI-1 = system: CAKI-1
HL-60 = system: HL-60
NCI-H460 = system: NCI-H460

## Cc1cccc(-n2c(C)nc3ccc(NC(=S)Nc4ccccc4)cc3c2=O)c1
DU-145
  GI50: 87.7 µM (inactive)
LOX IMVI
  GI50: 37.2 µM (inactive)
SK-MEL-28
  GI50: > 100 µM (inactive)
RXF 393
  GI50: 62.4 µM (inactive)
SR
  GI50: > 100 µM (inactive)
SK-MEL-5
  GI50: 18.2 µM (inactive)
786-0
  GI50: > 100 µM (inactive)
U-251
  GI50: > 100 µM (inactive)
ACHN
  GI50: 53.5 µM (inactive)
SNB-19
  GI50: > 100 µM (inactive)
UO-31
  GI50: 47.4 µM (inactive)
OVCAR-4
  GI50: 60.8 µM (inactive)
T47D
  GI50: 38 µM (inactive)
SF-268
  GI50: 66.5 µM (inactive)
Malme-3M
  GI50: 69.2 µM (inactive)
MDA-MB-435
  GI50: 56 µM (inactive)
HCC 2998
  GI50: 25 µM (inactive)
OVCAR-8
  GI50: 74.3 µM (inactive)
HT-29
  GI50: 51.9 µM (inactive)
SN12C
  GI50: > 100 µM (inactive)
MDA-N
  GI50: 55.6 µM (inactive)
RPMI-8226
  GI50: 35.2 µM (inactive)
TK-10
  GI50: > 100 µM (inactive)
SK-MEL-2
  GI50: 39 µM (inactive)
SNB-75
  GI50: > 100 µM (inactive)
IGROV-1
  GI50: > 100 µM (inactive)
KM12
  GI50: 57.3 µM (inactive)
HCT-15
  GI50: 68.5 µM
A498
  GI50: > 100 µM (inactive)
MOLT-4
  GI50: 28.4 µM (inactive)
UACC-257
  GI50: 47.6 µM (inactive)
MDA-MB-231
  GI50: 70.1 µM (inactive)
HCT-116
  GI50: 46.5 µM (inactive)
NCI/ADR-RES
  GI50: 84.1 µM (inactive)
Hs-578T
  GI50: > 100 µM (inactive)
NCI-H522
  GI50: 51.2 µM (inactive)
NCI-H226
  GI50: 81.1 µM (inactive)
COLO 205
  GI50: 30.6 µM (inactive)
UACC-62
  GI50: 50.1 µM (inactive)
EKVX
  GI50: 55.7 µM (inactive)
OVCAR-5
  GI50: > 100 µM (inactive)
PC-3
  GI50: 41.6 µM (inactive)
MCF7
  GI50: 67 µM (inactive)
K562
  GI50: 50.1 µM (inactive)
HOP-62
  GI50: > 100 µM (inactive)
SF-295
  GI50: > 100 µM (inactive)
NCI-H23
  GI50: 64.9 µM (inactive)
OVCAR-3
  GI50: 32.4 µM (inactive)
BT-549
  GI50: 48.5 µM (inactive)
SW-620
  GI50: > 100 µM (inactive)
CAKI-1
  GI50: > 100 µM (inactive)
HL-60
  GI50: 37.4 µM (inactive)
NCI-H460
  GI50: 11 µM (inactive)
